Data: US8548745B2, “Visual-servoing optical microscopy” (The Regents of the University of California, priority 2000, dated 2013)

Experiments:
[1] = tested on: MCF-7 ADR (MDR) cells; experiment: VSOM MDR assay (MDR Assay Beta-Test kit), calcein accumulation, run 2; conditions: for calcein accumulation in selected single cells on exposure to modulator: two of four selected single cell response curves, run 2, CAM+V (syringe #5) or CAM+MK
Experimental: Both runs used the pump schedule. […] The red line in each case represents the average of all the cell responses in the entire field of view.
The MDR Assay β-Test kit was also tested in a VSOM experiment, as described herein. […] Pumps are turned on and off at specified flow rates according to a pre-programmed recipe, or based on real-time analysis of individual cell responses. The CAM, V, and MK concentrations used are noted in the figure. The three exposures to CAM were 900 seconds (20 min) each, and thus the total exposure to CAM was 60 min. The black windows at the bottom of the Figure show the mean response of all cells in the field of view.
The plot and images were continuously refreshed and updated during the experiment. […] However, the mean cellular fluorescence of each cell was monitored during VSOM experiments, and making deviations from the mean easily detectable. […] Such cells are unable to retain calcein, and it leaks out, causing the fluorescence signal to drop.

[2] = tested on: MCF-7 WTC (DS) cells; experiment: VSOM MDR assay (MDR Assay Beta-Test kit), calcein accumulation, run 1; format: cell-based, human; conditions: run 1, N=336, three CAM exposures
Excerpt: Both runs used the pump schedule.

[3] = tested on: DoHH2 lymphoma; conditions: full phosphorothioate 18-mer; severe immunodeficient mice (Raynaud et al.); cited from earlier work
[4] = tested on: mRNA translation; conditions: cell-free system (Mologni et al.); only when both PNA-ODNs are simultaneously present; cited from earlier work
[5] = tested on: MCF-7 WTC cells; experiment: ADR visual servoing experiment, CAM perfusion until average MI threshold; format: cell-based, human; conditions: 1 μM CAM in DBPSGP perfused at 0.5 mL/min
Experimental: MCF-7 WTC cells were grown in 35 mm cell culture dishes, and were pre-stained with H42. After an approximately 1 hr pre-incubation with H42, cells were rinsed with DPBSGP and were placed in the warm microscope chamber. The ADR program successfully operated in the following fashion. Three digital images (360 nm excitation, 490 nm excitation, and transmitted light, brightfield) were acquired at regular specified intervals through this experiment and all the H42 stained nuclei were detected and segmented before the next image interval. The nuclear contours for each nucleus that were delineated in the blue channel were used to calculate a mean cellular fluorescence intensity value from the green channel (MI). An initial perfusion of DBPSGP solution only (syringe #1) was performed at 1.0 mL/min for 8.3 minutes, (as specified by the user), and then syringe #1 was stopped. Next, a perfusion of DBPSGP solution containing 1 μM CAM (syringe #2) was begun at 0.5 mL/min. When the average MI of all the cells reached a specified threshold, syringe #2 was stopped via successful visual servoing. It took 13.9 minutes for the cells to accumulate sufficient CAM, and for the system to detect sufficient intracellular CAM (in the nuclear region), before the system successfully stopped syringe #2, and restarted syringe #1. After 11.4 min (as specified) the system stopped syringe #1 again. […]

CN(C)C(=O)CCSC(SCCC(=O)O)c1cccc(/C=C/c2ccc3ccc(Cl)cc3n2)c1 (centres unmarked) [MK-571]
calcein accumulation in selected single cells on exposure to modulator [1]: not inhibited

O=C(O)CN(CC(=O)O)Cc1cc2c(cc1O)Oc1cc(O)c(CN(CC(=O)O)CC(=O)O)cc1C21OC(=O)c2ccccc21 [calcein]
calcein accumulation (mean cellular fluorescence, mean of all cells in field) [2]: 240±82
calcein accumulation (mean cellular fluorescence, mean of all cells in field) ([1]; MDR cells, run 2, N=161, three CAM exposures): 103±80

COc1ccc(CCN(C)CCCC(C#N)(c2ccc(OC)c(OC)c2)C(C)C)cc1OC (centres unmarked) [verapamil]
calcein accumulation in selected single cells on exposure to modulator [1]: do not accumulate calcein until verapamil (V) exposure

SEQ ID NO:1: 18-mer TCTC CCAG CGTG CGCC AT, anti-sense to the first six codons of the open reading frame of bcl-2 (antisense TCTCCCAGCGTGCGCCAT; chemistry not given here; listed as Homo sapiens)
efficacy against DoHH2 lymphoma [3]: has shown efficacy

SEQ ID NO:2: 15-mer peptide nucleic acid oligodeoxyribonucleotide CCCC AGCC CCTA CCC (CCCCAGCCCCTACCC; all peptide nucleic acid (PNA); further chemistry not fully specified; listed as Homo sapiens)
block of mRNA translation [4]: complete block

SEQ ID NO:3: 15-mer peptide nucleic acid oligodeoxyribonucleotide AGCG TGCG CCAT CCC (AGCGTGCGCCATCCC; all peptide nucleic acid (PNA); further chemistry not fully specified; listed as Homo sapiens)
block of mRNA translation [4]: complete block

calcein-AM [CAM]
time for cells to accumulate sufficient CAM to reach the specified average MI threshold [5]: 13.9 min
